Assay results from US20240148940A1, “METHODS OF INHIBITION” (Queensland Eye Institute Foundation, priority 2022, published 2024).

Assays:
[1] = tested on: isolated porcine aortic adventitia; test: Uniaxial tensile measurements on isolated porcine aortic adventitia, irradiated vs non-irradiated; settings: 0.1% w/v in saline, UV-A 365 nm, 45 mW/cm^2, 10 minutes, both sides, n=30
Experimental: Twenty-five porcine aortas from the abdominal region were used in this study, sourced from an abattoir. The aorta specimens were processed by first removing the extraneous adipose and loose connective tissue debris from the external surface using surgical scissors. One cut was then performed along the longitudinal axis of each aortic tube, in order to obtain flat rectangular sheets. A surgical scalpel was used to make an initial cornerwise-interstitial incision between adventitia and media layers, and the adventitial layer was carefully dissected and peeled off by hand. […] The irradiance at the exposure site was monitored with the radiometer Dymax ACCU-CAL 50 (Dymax Corp., Torrington, CT, USA). […]
An Instron Materials Testing System Model #5943 (Instron, Norwood, MA, USA), equipped with a 50-N load cell, was used to measure uniaxially the tensile properties of isolated adventitia specimens (n=30), prior to and after irradiation. […] Strips (1 cm×3 cm) were cut, and their thickness and width were measured with a digital caliper (Digimax Global Inc., Toronto, Canada). […] The values for Young's moduli were computed from the recorded stress-strain plots in the linear region.
Irradiation was conducted in the presence of a solution of riboflavin 5′-phosphate monosodium salt in saline in accordance with the procedure of Example 1. The results were expressed as mean values±standard error of the mean. […]

[2] = tested on: isolated porcine aortic adventitia subjected to collagenase; test: Uniaxial tensile testing of enzymatically degraded (collagenolysis) isolated porcine aortic adventitia; settings: collagenase 20 U/mL, 8 or 20 hours, UV-A 365 nm, 45 mW/cm^2, 10 minutes
Experimental: An Instron Materials Testing System Model #5943 (Instron, Norwood, MA, USA), equipped with a 50-N load cell, was used to measure uniaxially the tensile properties of isolated adventitia specimens (n=30), prior to and after irradiation. Irradiation was conducted in the presence of a solution of riboflavin 5′-phosphate monosodium salt in saline in accordance with the procedure of Example 1. Before measurements, each specimen was soaked in phosphate buffered saline (PBS) for at least 1 hour at room temperature. Strips (1 cm×3 cm) were cut, and their thickness and width were measured with a digital caliper (Digimax Global Inc., Toronto, Canada). Thirty measurements for specimens in each set of samples (non-irradiated and irradiated) were carried out along the longitudinal direction at a set gauge distance of 16 mm and a speed of 10 mm/min. The values for Young's moduli were computed from the recorded stress-strain plots in the linear region.
Thirty porcine adventitial specimens were isolated and exposed to UV-A radiation as described in Example 1. Irradiation was conducted in the presence of a solution of riboflavin 5′-phosphate monosodium salt in saline in accordance with the procedure of Example 1. Non-irradiated and irradiated adventitial specimens, as sets of 10 pieces each (5 cm×3 cm), were soaked in saline for 1 hour with gentle shaking, and then placed into the wells of 6-well plates. A solution containing 20 U/mL (˜0.08 mg/mL) collagenase was prepared in Tris buffer (0.05 M, pH 7.4), which also contained calcium chloride (10 mM) and sodium azide (0.02%). To each well, 5 mL of this solution was added to cover the samples. The well plates were placed in an orbital shaker and shaken at 160 rpm for either 8 hours or 20 hours at 37° C. […]
The three sets of adventitial specimens designated as (1), (2) and (3) in Example 5 were evaluated by uniaxial tensile testing following the procedure described in Example 2. […]

[3] = tested on: isolated porcine aortic adventitia; test: Biaxial tensile measurements on isolated porcine aortic adventitia; settings: 25% stretch, UV-A 365 nm, 45 mW/cm^2, 10 minutes, n=23
Experimental: Twenty-three porcine aortas from the abdominal region were used in this study and processed initially as described in Example 1. Irradiation was conducted in the presence of a solution of riboflavin 5′-phosphate monosodium salt in saline in accordance with the procedure of Example 1. The isolated adventitial specimens were then cut into squares of 14 mm×14 mm, and thickness was measured with a digital caliper at three spots and averaged. The tensile properties were measured and recorded biaxially in the CS BioTester™ 5000 biotesting system (CellScale Biomaterials Testing, Waterloo, ON, Canada), equipped with two 2.5-N load cells, using a set of four BioRakes™ that consisted each of 5 tungsten tines spaced evenly. All samples were submerged in a temperature-controlled bath containing PBS at 37° C., and tested by stretching the gripped area (11 mm×11 mm) to 25% of total stretch, at a rate of 1%/s. The samples were preconditioned for 10 cycles, and the tenth cycle was used for subsequent analysis. Assuming that tissue was incompressible and had negligible shear components, the Cauchy stress (σ) was determined with the equations: […]
In these equations, F is the measured load, λ is the stretch, X is the initial length, T is the averaged initial thickness of the tissue sample. […] The stretch was calculated as follows: […]
These characteristics were evaluated for 25% stretch (strain). […]

Cc1cc2nc3c(=O)[nH]c(=O)nc-3n(C[C@H](O)[C@H](O)[C@H](O)COP(=O)([O-])O)c2cc1C.[Na+] [riboflavin 5′-phosphate monosodium salt]
Young's modulus (stiffness), difference between non-irradiated and irradiated specimens ([1]; p=0.0012): statistically significant
ultimate stress (maximum load at the time of rupture), difference between non-irradiated and irradiated specimens ([1]; p=0.0015): statistically significant
Young's modulus (stiffness) vs degradation time, samples first irradiated then subjected to collagenolysis (I/D) compared with D and D/I ([2]; 37° C., n=30): highest
ultimate stress (strength) vs degradation time, samples first irradiated then subjected to collagenolysis (I/D) compared with D and D/I ([2]; 37° C., n=30): highest
statistical differences between degraded non-irradiated samples (D) and those irradiated after degradation (D/I), modulus and stress ([2]; p~0.2-0.5): low significance
Cauchy stress, difference between non-irradiated and irradiated specimens ([3]; circumferential (p=1.4×10^−3) and longitudinal (p=5.3×10^−4)): high level of statistical significance
tangent modulus (stiffness), difference between non-irradiated and irradiated specimens ([3]; circumferential (p=6.8×10^−5) and longitudinal (p=7.1×10^−5)): high level of statistical significance
